Experimental data taken from ChEMBL document CHEMBL1142151, “Association of QnrB determinants and production of extended-spectrum beta-lactamases or plasmid-mediated AmpC beta-lactamases in clinical isolates of Klebsiella pneumoniae” (2007).
Converted amounts (≈) assume the structure as drawn.

Columns and labels:
Type in all cases: functional
[1] = system: Klebsiella pneumoniae; assay: Inhibitory activity against Klebsiella pneumoniae 07-006
[2] = system: Escherichia coli; assay: Inhibitory activity against azide-resistant Escherichia coli J53 T03-222
[3] = system: Escherichia coli; assay: Inhibitory activity against azide-resistant Escherichia coli J53 T07-006
[4] = system: Klebsiella pneumoniae; assay: Inhibitory activity against Klebsiella pneumoniae 35
[5] = system: Klebsiella pneumoniae; assay: Inhibitory activity against Klebsiella pneumoniae 12-1183
[6] = system: Escherichia coli; assay: Inhibitory activity against azide-resistant Escherichia coli J53 T12-1183
[7] = system: Klebsiella pneumoniae; assay: Inhibitory activity against Klebsiella pneumoniae 03-222
[8] = system: Escherichia coli; assay: Inhibitory activity against Escherichia coli 12-1502
[9] = system: Escherichia coli; assay: Inhibitory activity against azide-resistant Escherichia coli J53
[10] = system: Escherichia coli; assay: Inhibitory activity against azide-resistant Escherichia coli J53 T35
[11] = system: Escherichia coli; assay: Inhibitory activity against azide-resistant Escherichia coli J53 T12-1502

SMILES | MIC [1] | MIC [2] | MIC [3] | MIC [4] | MIC [5] | MIC [6] | MIC [7] | MIC [8] | MIC [9] | MIC [10] | MIC [11]
CO[C@@]1(NC(=O)Cc2cccs2)C(=O)N2C(C(=O)O)=C(COC(N)=O)CS[C@@H]21 [CEFOXITIN] | 16 µg/mL (≈ 37.4 µM) | 4 µg/mL (≈ 9.36 µM) | 4 µg/mL (≈ 9.36 µM) | 32 µg/mL (≈ 74.9 µM) | > 128 µg/mL | 32 µg/mL (≈ 74.9 µM) | 16 µg/mL (≈ 37.4 µM) | > 128 µg/mL | 4 µg/mL (≈ 9.36 µM) | 4 µg/mL (≈ 9.36 µM) | > 128 µg/mL
CCn1cc(C(=O)O)c(=O)c2ccc(C)nc21 [NALIDIXIC ACID] | > 64 µg/mL | 32 µg/mL (≈ 138 µM) | 32 µg/mL (≈ 138 µM) | > 64 µg/mL | > 64 µg/mL | 32 µg/mL (≈ 138 µM) | > 64 µg/mL | 16 µg/mL (≈ 68.9 µM) | 8 µg/mL (≈ 34.4 µM) | 32 µg/mL (≈ 138 µM) | 32 µg/mL (≈ 138 µM)
CO/N=C(\C(=O)N[C@@H]1C(=O)N2C(C(=O)O)=C(COC(C)=O)CS[C@H]12)c1csc(N)n1 [CEFOTAXIME] | 64 µg/mL (≈ 141 µM) | 2 µg/mL (≈ 4.39 µM) | 16 µg/mL (≈ 35.1 µM) | > 128 µg/mL | 16 µg/mL (≈ 35.1 µM) | 4 µg/mL (≈ 8.78 µM) | 4 µg/mL (≈ 8.78 µM) | 64 µg/mL (≈ 141 µM) | < 0.25 µg/mL | 16 µg/mL (≈ 35.1 µM) | 64 µg/mL (≈ 141 µM)
CC(C)(O/N=C(\C(=O)N[C@@H]1C(=O)N2C(C(=O)[O-])=C(C[n+]3ccccc3)CS[C@H]12)c1csc(N)n1)C(=O)O [CEFTAZIDIME] | 128 µg/mL (≈ 234 µM) | 64 µg/mL (≈ 117 µM) | 128 µg/mL (≈ 234 µM) | > 128 µg/mL | 128 µg/mL (≈ 234 µM) | 128 µg/mL (≈ 234 µM) | 128 µg/mL (≈ 234 µM) | 128 µg/mL (≈ 234 µM) | 1 µg/mL (≈ 1.83 µM) | 128 µg/mL (≈ 234 µM) | 64 µg/mL (≈ 117 µM)
COc1c(N2C[C@@H]3CCCN[C@@H]3C2)c(F)cc2c(=O)c(C(=O)O)cn(C3CC3)c12 [MOXIFLOXACIN] | 8 µg/mL (≈ 19.9 µM) | 0.5 µg/mL (≈ 1.25 µM) | 1 µg/mL (≈ 2.49 µM) | > 8 µg/mL | > 8 µg/mL | 1 µg/mL (≈ 2.49 µM) | 8 µg/mL (≈ 19.9 µM) | 0.5 µg/mL (≈ 1.25 µM) | – | 0.5 µg/mL (≈ 1.25 µM) | 0.5 µg/mL (≈ 1.25 µM)
O=C(O)c1cn(C2CC2)c2cc(N3CCNCC3)c(F)cc2c1=O [CIPROFLOXACIN] | 16 µg/mL (≈ 48.3 µM) | – | – | 16 µg/mL (≈ 48.3 µM) | > 16 µg/mL | – | 16 µg/mL (≈ 48.3 µM) | – | – | – | –
C[C@H]1COc2c(N3CCN(C)CC3)c(F)cc3c(=O)c(C(=O)O)cn1c23.C[C@H]1COc2c(N3CCN(C)CC3)c(F)cc3c(=O)c(C(=O)O)cn1c23.O [LEVOFLOXACIN] | 8 µg/mL | 0.25 µg/mL | 0.25 µg/mL | 4 µg/mL | > 16 µg/mL | – | 16 µg/mL | 0.25 µg/mL | – | 0.25 µg/mL | 0.25 µg/mL
